Measurements published in patent US12564638B2 (SHANGHAITECH UNIVERSITY, priority 2019, dated 2026).
Like-named read-outs stand apart in the source and are kept apart here.

Experiments:
Format in all cases: cell-based
[1] = test system: HCC827 cells (EGFR Exon19 del, non-small cell lung cancer cells); assay: Cell viability assay (WST/CCK8), HCC827 cells; conditions: Homo sapiens, HCC827, 72 h, read-out: IC50 (half inhibitory concentration)
Summary of the method: (§1)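 Plated 3 000 cells/well in complete RPMI1640 the day before dosing; controls were DMSO (negative) and EGFR TKIs (positive).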

[2] = test system: PC9 cells (EGFR Exon 19 del, non-small cell lung cancer cells); assay: Cell viability assay (WST/CCK8), PC9 cells; conditions: Homo sapiens, read-out: IC50 (half inhibitory concentration)
Summary of the method: as §1

[3] = test system: BT474 cells (HER2 positive breast cancer cells); assay: Cell viability assay (CCK8), BT474 cells; conditions: Homo sapiens, BT-474, Table 10, BT474, 72 hours, read-out: IC50 (half inhibitory concentration)
Summary of the method: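 HER2-overexpressing BT474 cells in RPMI1640 were exposed to compounds for 72 hours over 10 concentrations (3-fold dilution, top 10 μM). Viability was measured with CCK8 reagent against a DMSO control, and IC50 was taken from growth inhibition curves.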

[4] = test system: PC9BracA1 (EGFR Exon 19 del+T790M, non-small cell lung cancer cells); assay: Cell viability assay (WST/CCK8), PC9Brac1 cells; conditions: read-out: IC50 (half inhibitory concentration)
From the text: (§2) The cell lines with abnormal EGFR expression used are as follows: • HCC827 cells (EGFR Exon19 del, non-small cell lung cancer cells); • PC9 cells (EGFR Exon 19 del, non-small cell lung cancer cells); • PC9BracA1 (EGFR Exon 19 del+T790M, non-small cell lung cancer cells) • H1975 (EGFR Exon T790M+L858R mutation, non-small cell lung cancer cell line) • BT474 cells (HER2 positive breast cancer cells)
(§3) All of the half inhibitory concentrations (IC50) of these compounds of the present invention were determined with WST reagent from Fuyuan Biotec Company. The specific experiment procedures are as follows: Cancer cells were planted in 96-well-plate at the density of 3 000 cells per well with 100 μL RPMI1640 completed culture medium. In the next day, compounds with indicated concentrations were added to the cells, DMSO was used as the negative control and the EGFR TKIs were used to treat cells as the positive groups. After 72 hours drug treatment, cell viability was measured by using the WST reagent following the instructions.

[5] = test system: H1975 (EGFR T790M+L858R mutation, non-small cell lung cancer cell line); assay: Cell viability assay (WST/CCK8), H1975 cells; conditions: Homo sapiens, read-out: IC50 (half inhibitory concentration)
From the text: as §2, §3

[6] = Table 7, canertinib-based compounds, PC9Brca1 (Ex19del + T790M)
[7] = NCI-H1975, Table 7, canertinib-based compounds, H1975 (L858R + T790M)
[8] = Table 8, osimertinib-based compounds, HCC827, 72 hours, WST
[9] = PC-9, Table 8, osimertinib-based compounds, PC9, 72 hours, WST
[10] = Table 8, osimertinib-based compounds, Pc9Brc1, 72 hours, WST
[11] = NCI-H1975, Table 8, osimertinib-based compounds, H1975, 72 hours, WST

Structure (SMILES)	IC50 [1, 8] [nM]	IC50 [2, 9] [nM]	IC50 [4, 10] [nM]	IC50 [5, 11] [nM]	other results
C=CC(=O)Nc1cc2c(Nc3ccc(F)c(Cl)c3)ncnc2cc1OCCCN1CCC(N2CCN(C(=O)CCCCCNc3cccc4c3C(=O)N(C3CCC(=O)NC3=O)C4=O)CC2)CC1 (centres unmarked) [SIAIS262178, N-(4-((3-chloro-4-fluorophenyl)amino)-7-(3-(4-(4-(6-((2-(2,6-dioxopiperidin-3-yl)-1,3-dioxoisoindolin-4-yl)amino)hexanoyl)piperazin-1-yl)piperidin-1-yl)propoxy)quinazolin-6-yl)acrylamide]	–	–	–	–	IC50 ([1]; Table 6, canertinib-based compounds, HCC827 (Exon19 Del), 72 hours, WST): 5.2 nM; IC50 ([2]; PC-9, Table 6, canertinib-based compounds, PC9 (Exon19 Del), 72 hours, WST): 0.4 nM; IC50 [3]: 2.1 nM; IC50 [4, 6]: 69 nM; IC50 [5, 7]: 38 nM
C=CC(=O)Nc1cc(Nc2nccc(-c3cn(C)c4ccccc34)n2)c(OC)cc1N(C)CCN(C)CCCCCCCCCSc1cccc2c1CN(C1CCC(=O)NC1=O)C2=O (centres unmarked) [SIAIS337085, N-(2-((2-((9-((2-(2,6-dioxopiperidin-3-yl)-1-oxoisoindolin-4-yl)thio)nonyl)(methyl)amino)ethyl)(methyl)amino)-4-methoxy-5-((4-(1-methyl-1H-indol-3-yl)pyrimidin-2-yl)amino)phenyl)acrylamide]	6	143	239	462	–
C=CC(=O)Nc1cc(Nc2nccc(-c3cn(C)c4ccccc34)n2)c(OC)cc1N(C)CCN(C)CCCCCSc1cccc2c1CN(C1CCC(=O)NC1=O)C2=O (centres unmarked) [SIAIS337081, N-(2-((2-((5-((2-(2,6-dioxopiperidin-3-yl)-1-oxoisoindolin-4-yl)thio)pentyl)(methyl)amino)ethyl)(methyl)amino)-4-methoxy-5-((4-(1-methyl-1H-indol-3-yl)pyrimidin-2-yl)amino)phenyl)acrylamide]	184	134	207	18	–
C=CC(=O)Nc1cc(Nc2nccc(-c3cn(C)c4ccccc34)n2)c(OC)cc1N(C)CCN(C)CCCCCCCC#Cc1cccc2c1CN(C1CCC(=O)NC1=O)C2=O (centres unmarked)	9	161	413	117	–
C=CC(=O)Nc1cc(Nc2nccc(-c3cn(C)c4ccccc34)n2)c(OC)cc1N(C)CCN(C)C(=O)COCCSc1cccc2c1CN(C1CCC(=O)NC1=O)C2=O (centres unmarked) [SIAIS337074, N-(2-((2-(2-(2-((2-(2,6-dioxopiperidin-3-yl)-1-oxoisoindolin-4-yl)thio)ethoxy)-N-methylacetamido)ethyl)(methyl)amino)-4-methoxy-5-((4-(1-methyl-1H-indol-3-yl)pyrimidin-2-yl)amino)phenyl)acrylamide]	3	91	238	145	–
C=CC(=O)Nc1cc(Nc2nccc(-c3cn(C)c4ccccc34)n2)c(OC)cc1N(C)CCN(C)C(=O)COCCOCCOCCSc1cccc2c1CN(C1CCC(=O)NC1=O)C2=O (centres unmarked) [SIAIS337076, N-(2-((14-((2-(2,6-dioxopiperidin-3-yl)-1-oxoisoindolin-4-yl)thio)-3-methyl-4-oxo-6,9,12-trioxa-3-azatetradecyl)(methyl)amino)-4-methoxy-5-((4-(1-methyl-1H-indol-3-yl)pyrimidin-2-yl)amino)phenyl)acrylamide]	10	459	303	187	–
C=CC(=O)Nc1cc(Nc2nccc(-c3cn(C)c4ccccc34)n2)c(OC)cc1N(C)CCNC [SIAIS337051, N-(4-methoxy-2-(methyl(2-(methylamino)ethyl)amino)-5-((4-(1-methyl-1H-indol-3-yl)pyrimidin-2-yl)amino)phenyl)acrylamide]	1	2	479	1	–
C=CC(=O)Nc1cc(Nc2nccc(-c3cn(C)c4ccccc34)n2)c(OC)cc1N(C)CCN(C)CCCCCCCCCCCSc1cccc2c1CN(C1CCC(=O)NC1=O)C2=O (centres unmarked) [SIAIS337087, N-(2-((2-((11-((2-(2,6-dioxopiperidin-3-yl)-1-oxoisoindolin-4-yl)thio)undecyl)(methyl)amino)ethyl)(methyl)amino)-4-methoxy-5-((4-(1-methyl-1H-indol-3-yl)pyrimidin-2-yl)amino)phenyl)acrylamide]	91	320	598	242	–
C=CC(=O)Nc1cc(Nc2nccc(-c3cn(C)c4ccccc34)n2)c(OC)cc1N(C)CCN(C)CCCCCCSc1cccc2c1CN(C1CCC(=O)NC1=O)C2=O (centres unmarked) [SIAIS337082, N-(2-((2-((6-((2-(2,6-dioxopiperidin-3-yl)-1-oxoisoindolin-4-yl)thio)hexyl)(methyl)amino)ethyl)(methyl)amino)-4-methoxy-5-((4-(1-methyl-1H-indol-3-yl)pyrimidin-2-yl)amino)phenyl)acrylamide]	8	89	218	55	–
C=CC(=O)Nc1cc(Nc2nccc(-c3cn(C)c4ccccc34)n2)c(OC)cc1N(C)CCN(C)CCCCCCCCCCSc1cccc2c1CN(C1CCC(=O)NC1=O)C2=O (centres unmarked) [SIAIS337086, N-(2-((2-((10-((2-(2,6-dioxopiperidin-3-yl)-1-oxoisoindolin-4-yl)thio)decyl)(methyl)amino)ethyl)(methyl)amino)-4-methoxy-5-((4-(1-methyl-1H-indol-3-yl)pyrimidin-2-yl)amino)phenyl)acrylamide]	3	64	194	203	–
C=CC(=O)Nc1cc(Nc2nccc(-c3cn(C)c4ccccc34)n2)c(OC)cc1N(C)CCN(C)Cc1ccc(CSc2cccc3c2CN(C2CCC(=O)NC2=O)C3=O)cc1 (centres unmarked) [SIAIS337088, N-(2-((2-((4-(((2-(2,6-dioxopiperidin-3-yl)-1-oxoisoindolin-4-yl)thio)methyl)benzyl)(methyl)amino)ethyl)(methyl)amino)-4-methoxy-5-((4-(1-methyl-1H-indol-3-yl)pyrimidin-2-yl)amino)phenyl)acrylamide]	5	302	662	239	–
C=CC(=O)Nc1cc(Nc2nccc(-c3cn(C)c4ccccc34)n2)c(OC)cc1N(C)CCN(C)CCCCCCCSc1cccc2c1CN(C1CCC(=O)NC1=O)C2=O (centres unmarked) [SIAIS337083, N-(2-((2-((7-((2-(2,6-dioxopiperidin-3-yl)-1-oxoisoindolin-4-yl)thio)heptyl)(methyl)amino)ethyl)(methyl)amino)-4-methoxy-5-((4-(1-methyl-1H-indol-3-yl)pyrimidin-2-yl)amino)phenyl)acrylamide]	46	512	676	494	–
C=CC(=O)Nc1cc(Nc2nccc(-c3cn(C)c4ccccc34)n2)c(OC)cc1N(C)CCN(C)C [Osimertinib, reference compound]	–	–	–	–	IC50 [1]: 0.36 nM; IC50 ([2]; PC-9, 72 h): 4 nM; IC50 ([4]; 72 h): 354 nM; IC50 ([5]; NCI-H1975, 72 h): 2 nM
C=CC(=O)Nc1cc2c(Nc3ccc(F)c(Cl)c3)ncnc2cc1OCCCN1CCC(N2CCN(CCCCCCNc3cccc4c3C(=O)N(C3CCC(=O)NC3=O)C4=O)CC2)CC1 (centres unmarked) [SIAIS262183, N-(4-((3-chloro-4-fluorophenyl)amino)-7-(3-(4-(4-(6-((2-(2,6-dioxopiperidin-3-yl)-1,3-dioxoisoindolin-4-yl)amino)hexyl)piperazin-1-yl)piperidin-1-yl)propoxy)quinazolin-6-yl)acrylamide]	–	–	–	–	IC50 [3]: 11.9 nM; IC50 [4, 6]: 1060 nM; IC50 [5, 7]: 250 nM
